Experimental findings from publication PMC8400033, “A Multicomponent Protocol for the Synthesis of Highly Functionalized γ-Lactam Derivatives and Their Applications as Antiproliferative Agents” (Pharmaceuticals, 2021) are described below.

SMILES strings stand for the structures. A value given as a limit tells only on which side of the number the result lay.

Series [1] has as its system MRC5 non-malignant lung fibroblasts. Briefly: CCK-8 assay on non-malignant cells for selective toxicity. The note with it: Homo sapiens; MRC5 non-malignant lung fibroblasts, CCK-8; read-out: IC50 MRC5. The format is cell-based.
Description: (§2) In vitro cytotoxicity of the γ-lactam derivatives was evaluated by testing their antiproliferative activities against several human cancer cell lines. Cell counting kit (CCK-8) assay was used for the evaluation of growth inhibition.
(§3) All stock solutions of the investigated compounds were prepared by dissolving the powdered materials in appropriate amounts of DMSO. The final concentration of DMSO never exceeded 5% (v/v) in reactions. The stock solution was stored at 5 °C until it was used.
(§4) All were supplemented with 10% of fetal bovine serum (FBS) (Sigma-Aldrich, Madrid, Spain) and with 1% of NORMOCIN solution (Thermo Fisher, Waltham, Massachusetts, MA, USA). […] For cytotoxicity experiments, A549 cells were seeded in 96-well plates at a density of 2.5–3 × 10^3 cells per well and incubated overnight to achieve 70% of confluence at the time of exposition to the cytotoxic compound.
(§5) Both were supplemented with 10% of fetal bovine serum (FBS) (Sigma-Aldrich, Spain) and with 1% of NORMOCIN solution (Thermo Fisher, Waltham, Massachusetts, MA, USA). […] For cytotoxicity experiments, A549 cells were seeded in 96-well plates at a density of 2.5–3 × 10^3 cells per well and incubated overnight to achieve 70% of confluence at the time of exposition to the cytotoxic compound.
Series [2] relates to A549 cells. Briefly: Visualization of cell growth and morphology. Format: cell-based, human. On the procedure: Next, cell morphology analysis and flow cytometry assays were performed, to elucidate the mechanism of the antiproliferative activity of γ-lactam substrates. Cell morphology was analyzed at different time points after the addition of compound 4b to visualize the cellular modifications as a result of the treatment.
Qualitative analysis of A549 cell growth and morphology after exposure to 1 µM and 5 µM of the cytotoxic compound 4b was conducted using Cytation^TM 1 Cell Imaging Multi-Mode Reader (Biotek, Winooski, VT, USA). Cell images were acquired immediately after the addition of the compound and at the following time-points after exposure: 0.5, 1, 1.5, 2, 3, 4, 8, 12, 16, 24, and 48 h.

Series [3] has as its system SKOV3 (human ovarian carcinoma). The series is described as follows: CCK-8 antiproliferative assay, SKOV3 cell line. The note with it: Homo sapiens, SK-OV-3, read-out: IC50 SKOV3, SKOV3 cell line, CCK-8.
Description: as §2, §3, §4
In series [4] the test system is A549 (carcinomic human alveolar basal epithelial cell). The series is described as follows: CCK-8 antiproliferative assay, A549 cell line. The format is cell-based. As to conditions: Homo sapiens, A549, A549 cell line, CCK-8; read-out: IC50 A549. On the technique in general: Formazan colour is commonly taken as a measure of viable cells.
Description: as §2, §3, §4, §5
Series [5] has as its system A549 cells. The series is described as follows: Flow cytometry apoptosis/necrosis assay (Annexin V FITC / propidium iodide). The format is cell-based, human. The note with it: A549, 5 µM; for Percentage of late-apoptotic and necrotic cells: FL-1 and FL-3 positive; for Percentage of early-apoptotic cells: FL-1 positive, FL-3 negative. On the procedure:
In addition, flow cytometry assays were performed using compound 4b in A549 cells at 12, 24, and 48 h post-exposure. Early apoptotic cells were FL-1 positive and FL-3 negative, meaning that they had initialized the apoptotic process but were still alive at the time of the measurement. Percentages of these early-apoptotic cells after 12, 24, and 48 h. were, respectively, 31.17 ± 2.04%, 34.97 ± 3.62% and 40.13 ± 0.81%. On the other hand, late apoptotic and necrotic cells were both FL-1 and FL-3 positive, meaning that they activated the apoptotic machinery and were dead at the time of the measurement. Percentages of late-apoptotic and necrotic cells after 12, 24 and 48 h were, respectively, 33.03 ± 1.43%, 37.60 ± 3.37% and 36.90 ± 0.70% (Figure 4). Control live cells were all FL-1 and FL-3 negative, while around 95% of control necrotic cells were FL-3 positive, FL-1 negative (See ESI). […] In fact, among all the dead cells detected, which were FL-1 positive, almost all were simultaneously positive for the FL-3 channel too, while only a small percentage (2% or lower) of dead cells were exclusively FL-1 positive. Therefore, the majority of dead cells detected in this study were apoptotic cells. In addition, the total percentages of […], which comprised early and late apoptotic cells, were over 60%, and the percentage increased over time.
Flow cytometry assays were conducted using a FACSCalibur system flow cytometer (Becton Dickinson Bioscience, Franklin Lakes, NJ, USA), to identify apoptotic cells and to differentiate them from necrotic cells. A549 cells were exposed to 5 µM of the cytotoxic compound 4b and cell apoptosis and necrosis were evaluated 12, 24, and 48 h after exposure. For that purpose, treated cells were washed with phosphate-buffered saline (PBS) (Sigma-Aldrich, Spain) and detached with trypsin/EDTA (0.25%) (Gibco, New York, NY, USA). Cells were centrifuged at 1100 rpm for 5 min, and then the resulting pellet was resuspended in cell growth media and transferred to specific flow cytometer tubes. Propidium iodide (Sigma-Aldrich, Spain) at 1:300 dilution was used in each sample to detect necrotic cells and eBioscience™ Annexin V Apoptosis Detection Kit FITC (Fisher Scientific, Spain) was used to detect apoptotic cells following the manufacturer’s instructions. The fluorescent signals corresponding to necrotic cells and apoptotic cells were measured at 650 nm (FL3) and 525 nm (FL1), respectively. […] Cells treated with 1 µM of camptothecin (Sigma-Aldrich, Spain) served as a positive control for apoptosis and were used to establish cytometer settings and channel compensations. The experiments were carried out in triplicate for each condition. For each sample, 10,000 events were collected.
A general note: Flow cytometry measures light scatter and fluorescence of single cells or particles in a stream.

Series [6] concerns HEK293 (human embryonic kidney). The series is described as follows: CCK-8 antiproliferative assay, HEK293 cell line. Format: cell-based. The source says: (§1) In a preliminary study, we tested the cytotoxicity of γ-lactam 4b as lead compound against seven human cancer cell lines: HEK293 (human embryonic kidney), MCF7 (human breast adenocarcinoma), HTB81 (human prostate carcinoma), HeLa (human epithelioid cervix carcinoma), RKO (human colon epithelial carcinoma), SKOV3 (human ovarian carcinoma) and A549 (carcinomic human alveolar basal epithelial cell). The cell proliferation inhibitory activity of γ-lactam 4b is shown as IC50 values (Figure 2).

The test system of series [7] is MCF7 (human breast adenocarcinoma). Briefly: CCK-8 antiproliferative assay, MCF7 cell line. The format is cell-based.
Description: as §1

The test system of series [8] is HTB81 (human prostate carcinoma). The series is described as follows: CCK-8 antiproliferative assay, HTB81 cell line. Format: cell-based.
Description: as §1

For series [9], the system named is HeLa (human epithelioid cervix carcinoma). Briefly: CCK-8 antiproliferative assay, HeLa cell line. Format: cell-based.
Description: as §1

Series [10] concerns RKO (human colon epithelial carcinoma). The series is described as follows: CCK-8 antiproliferative assay, RKO cell line. The format is cell-based.
Description: as §2, §3, §4
Series [11] in a line: Solubility in solvents compatible with in vitro assays. Format: physicochemical. The note with it: in words.

The IC50 is the concentration that inhibits the measured activity by half. By melting point is commonly meant the temperature of the solid-liquid transition.

As to `Cc1ccc(NC2=CC(c3ccccc3)N(c3ccc(C)cc3)C2=O)cc1` (stereo not drawn) [4b], the IC50 was over 50 µM in series [1]; 9.62 ± 1.18 µM in [3]; 2.34 ± 0.28 µM in series [4]; over 50 µM in series [6] (Homo sapiens, HEK293, Figure 2); over 50 µM in series [7] (Homo sapiens, MCF7, Figure 2); 27.9 µM in series [8]. Further, the half-maximal inhibitory concentration (IC50) in [9] stood at 30.2 µM; in series [10], 22.1 ± 2.98 µM. For the same molecule, the “Cell morphology and growth” value is reported as “healthy, uniform morphology” in the series on A549 cells [2] (1 µM, 0-48 h) and “alterations of the cellular morphology” with A549 cells [2] (5 µM, especially after 6 h of exposure). Moreover, the Cell morphology result with A549 cells [2] (higher concentrations (10 and 15 µM, 24 h)) is recorded as “high cytotoxicity”. The “Percentage of dead cells exclusively FL-1 positive” value with A549 cells [5] (12-48 h) was at most 2%. Moreover, the “Total percentage of FL-3 positive cells (early and late apoptotic cells)” value with A549 cells [5] (12-48 h, increased over time) was “over 60%”. The “Percentage of late-apoptotic and necrotic cells” value was determined as 33.03 ± 1.43% in the series on A549 cells [5] (12 h post-exposure), 37.60 ± 3.37% in the series with A549 cells [5] (24 h post-exposure) and 36.90 ± 0.70% with A549 cells [5] (48 h post-exposure). Also, the “Percentage of early-apoptotic cells” value in the series on A549 cells [5] (12 h post-exposure) amounted to 31.17 ± 2.04%; in the series on A549 cells [5] (24 h post-exposure), 34.97 ± 3.62%; in the series with A549 cells [5] (48 h post-exposure), 40.13 ± 0.81%. Further, in [6], the “Growth inhibition activity against HEK293, in words” value is on record as “no grown inhibition activity”. Besides, the “Growth inhibition activity against MCF7, in words” value in series [7] is “no grown inhibition activity”.
Regarding `Cc1ccc(NC2=CC(CC(C)C)N(c3ccc(C)cc3)C2=O)cc1` (stereo not drawn) [4p], the melting point is 178 to 179 °C. The IC50 in series [1] worked out at 24.1 ± 1.64 µM. Further, in [3], the concentration for half-maximal inhibition (IC50) is over 50 µM. Also, in series [4], the IC50 turned out to be 20.1 ± 2 µM.
As to `Cc1ccc(NC2=C(P(=O)(c3ccccc3)c3ccccc3)CN(c3ccc(C)cc3)C2=O)cc1` [5e], the “Solubility in the solvents compatible with the tests for in vitro assays” value in series [11] is reported as “low solubility”.
As to `O=C1C(Nc2cccc(C(F)(F)F)c2)=CCN1c1cccc(C(F)(F)F)c1` [11a], the melting point lay in the range of 160 to 162 °C. Moreover, in [1], the IC50 is over 50 µM. Also, in [3], the half-maximal inhibitory concentration (IC50) is over 50 µM. Further, the IC50 in [4] turned out to be 22.9 ± 1.13 µM.
For `CCOC(=O)C1(C)C=C(Nc2ccc(C)cc2)C(=O)N1c1ccc(C)cc1` (stereo not drawn) [compound 16, Ethyl 2-methyl-5-oxo-1-(p-tolyl)-4-(p-tolylamino)-2,5-dihydro-1H-pyrrole-2-carboxylate], the melting point is 188 to 190 °C (dec.). Also, the 50% inhibitory concentration (IC50) in [1] was over 50 µM. Further, the concentration for half-maximal inhibition (IC50) in series [3] is over 50 µM. The IC50 in series [4] was determined as 14 ± 1.05 µM. In series [10], this molecule gave an IC50 of over 50 µM.
On to `Cc1ccc(/N=C2/C=C(c3ccccc3)N(c3ccc(C)cc3)C2=O)cc1` [compound 21, (Z)-5-phenyl-1-(p-tolyl)-3-(p-tolylimino)-1,3-dihydro-2H-pyrrol-2-one], for which the melting point was 207 °C (dec.). Moreover, in series [1], the concentration for half-maximal inhibition (IC50) came out at 6.12 ± 0.76 µM. Besides, the concentration for half-maximal inhibition (IC50) in series [3] was found to be 16.7 ± 1.1 µM. The IC50 in series [4] was 0.6 ± 0.08 µM.
